System: necrotic tissue (infarcted myocardial tissue)
Test: MRI analysis of contrast agents in vivo: rats, left main coronary artery ligation and reperfusion, MR images compared with tissue histology
Design: species or system rat
Description: Contrast agents were prepared following the methods outlined in Examples 1-11 above. Rats (250-300 g—obtained from where?) were used for the following studies detailed below.
Rats were anesthetized by administration of isoflurane (5% induction, 1-2% maintenance) and positioned in an animal holder. The blood pressure and heart rate of the rats were monitored prior to ligation to provide a baseline condition. The rats were subjected to ligation of the left main coronary artery under aseptic conditions. During the ligation, the left thoracic cage of the rat, at the 4th intercostal space was opened to expose the heart muscle. The pericardial sac was cut open and the left main coronary artery was ligated at 2-4 mm from its origin using 6-0 prolene for a period of 2 h. The ligature was then removed to allow for the reperfusion of the infarcted myocardial tissue. Following the ligation procedure, bupivacaine and Cicatrin were applied to the incision. […]
The contrast agent was the intravenously injected 4 hours following the start of myocardial reperfusion. The blood pressure and heart rate were monitored during the ligation procedure and the administration of the contrast agent. The body temperature of the rats was monitored with a rectal probe and maintained at the physiological level by the circulating warm water. […]

## O=C([O-])CN(CCN(CCN(CC(=O)[O-])CC(=O)Nc1ccc(NC(=O)CN(CCN(CCN(CC(=O)[O-])CC(=O)O)CC(=O)O)CC(=O)[O-])cc1)CC(=O)O)CC(=O)[O-].[Na+].[Na+].[Na+].[Na+].[Na+] [RF 1002]
5 mg/kg and 40 mg/kg intravenous 4 hours after start of reperfusion, 7 Tesla MRI about 4 to 16 hours after administration
  contrast enhancement in MR images versus necrotic tissue visible by staining of the tissue sample (binding to necrotic tissue): necrotic tissue visible by staining of the tissue sample corresponds to the same region exhibiting contrast enhancement in the MR images
40 mg/kg versus 5 mg/kg intravenous
  visibility of contrast enhancement on the MRI, dose comparison: more defined at the higher dosage of contrast agent

Source: patent publication US20140065075A1, “TARGETED CONTRAST AGENTS AND USES THEREOF” (RF THERAPEUTICS INC., priority 2011, published 2014)
